Laboratory results reported in patent US20130183268A1, “DRUG COMBINATIONS WITH FLUORO-SUBSTITUTED OMEGA-CARBOXYARYL DIPHENYL UREA FOR THE TREATMENT AND PREVENTION OF DISEASES AND CONDITIONS” (BAYER HEALTHCARE LLC, priority 2010, published 2013).

Experiments:
[1] = Metabolite profile, incubation of [14C]regorafenib with liver microsomes (rat); format: in vitro ADME, Wistar rat; details: [14C]regorafenib 20 μM, liver microsomes 0.5 mg/mL, 60 min
Description: N-oxide (M-2), hydroxymethyl (M-3), de-methylated (M-4) and N-oxide-demethylated (M-5) metabolites of the fluoro-substituted diaryl urea of Formula (I) are shown below. They were identified as metabolites of regorafenib in vitro upon incubation with liver enzymes of various mammalian species (man, dog, rat, mouse). Studies reveal that its metabolites show high protein binding in man and animal species (data not shown). [table]

mouse PDGFR = mouse PDGFR (Mus musculus, UniProt P05622); test: Murine PDGFR FRET biochemical assay; details: in words
Description: This assay was formatted in a 96-well black plate (Costar 3915). The following reagents are used: Europium-labeled anti-phosphotyrosine antibody pY20 (Perand streptavidin-APC; poly GT-biotin from, and mouse PDGFR. The reaction conditions are as follows: 1 nM mouse PDGFR is combined with 20 μM ATP, 7 nM poly GT-biotin, 1 nM pY20 antibody, 5 nM streptavidin-APC, and 1% DMSO in assay buffer (50 mM HEPES pH 7.5, 10 mM MgCl2, 0.1 mM EDTA, 0.015% BRIJ 35, 0.1 mg/mL BSA, 0.1% mercaptoethanol). Reaction is initiated upon addition of enzyme. Final reaction volume in each well is 100 μL. After 90 minutes, the reaction is stopped by addition of 10 μL/well of 5 μM staurosporine. Plates are read at both 615 and 665 nm on a Perkin Elmer VictorV Multilabel counter at about 1 hour after the reaction is stopped. Signal is calculated as a ratio: (665 nm/615 nm)*10000 for each well.
For IC50 generation for both PDGFR and Flk-1, compounds were added prior to the enzyme initiation. A 50-fold stock plate was made with compounds serially diluted 1:3 in a 50% DMSO/50% dH2O solution. […] The data were expressed as percent inhibition: % inhibition=100−((Signal with inhibitor-background)/(Signal without inhibitor-background))*100

[2] = biological target: T1, Lck-activated c-raf (Lck/c-raf) (Homo sapiens, UniProt P04049); test: c-raf (raf-1) biochemical assay; details: in words
T1 construct: GST-c-raf (from amino acid 302 to amino acid 648) and Lck (full-length); made in house; host or cells: Sf9 insect cells (baculovirus, co-infected with Lck baculovirus)
Description: The c-raf biochemical assay was performed with a c-raf enzyme that was activated (phosphorylated) by Lck kinase. Lck-activated c-raf (Lck/c-raf) was produced in Sf9 insect cells by co-infecting cells with baculoviruses expressing, under the control of the polyhedrin promoter, GST-c-raf (from amino acid 302 to amino acid 648) and Lck (full-length). Both baculoviruses were used at the multiplicity of infection of 2.5 and the cells were harvested 48 h post infection.
MEK-1 protein was produced in Sf9 insect cells by infecting cells with the baculovirus expressing GST-MEK-1 (full-length) fusion protein at the multiplicity of infection of 5 and harvesting the cells 48 hours post infection. Similar purification procedure was used for GST-c-raf 302-648 and GST-MEK-1.
Transfected cells were suspended at 100 mg of wet cell biomass per mL in a buffer containing 10 mM sodium phosphate, 140 mM sodium chloride pH 7.3, 0.5% Triton X-100 and the protease inhibitor cocktail. […]
Test compounds were serially diluted in DMSO using three-fold dilutions to stock concentrations ranging typically from 50 μM to 20 nM (final concentrations in the assay range from 1 μM to 0.4 nM). […] The filters were dried in a microwave, soaked in scintillation fluid and read in a Wallac 1205 Betaplate Counter (Wallac Inc., Atlanta, Ga., U.S.A.). The results were expressed as percent inhibition.

[3] = tested on: PDGFR-beta phosphorylation in aortic smooth muscle cells; test: pPDGFR-beta sandwich ELISA in AoSMC cells; format: cell-based; details: PDGF-BB stimulated
Description: 100K P3-P6 Aortic SMC were plated in each well of 12-well cluster in 1000 μL volume/well of SGM-2 using standard cell culture techniques. Next day, cells were rinsed with 1000 μL D-PBS once, then serum starved in 500 μL SBM (smooth muscle cell basal media) with 0.1% BSA overnight. Compounds were diluted at a dose range from (10 μM to 1 nM in 10-fold dilution steps in DMSO. Final DMSO concentration 0.1%). Remove old media by inversion into the sink quickly then add 100 μL of each dilution to corresponding well of cells for 1 h at 37° C. Cells were then stimulated with 10 ng/mL PDGF-BB ligand for 7 min at 37° C. The media is decanted and 150 μL of isotonic lysis buffer with protease inhibitor tablet (Complete; EDTA-free) and 0.2 mM Na vanadate is added. Cells are lysed for 15 min at 4° C. on shaker in cold room. […]
Table 2 illustrates the results of two cellular assays for raf kinase activity, which are (i) inhibition of pERK in MDA-MB231 cells, a mechanistic readout of raf kinase activity, and (ii) a proliferation assay of MDA-MB231 cells, a functional assay of raf kinase activity. In addition, Table 2 illustrates the results of PDGFR driven phosphorylation of PDGFR-beta in aortic smooth muscle cells, which is a mechanistic readout of PDGFR kinase inhibition.

[4] = Pharmacokinetics in patients after 160 mg regorafenib co-precipitate tablet; details: analyte in plasma, 160 mg regorafenib co-precipitate tablet daily, day 21, n = 9, geometric mean

mouse PDGFR, sequence (P05622 553-1098 limits assumed): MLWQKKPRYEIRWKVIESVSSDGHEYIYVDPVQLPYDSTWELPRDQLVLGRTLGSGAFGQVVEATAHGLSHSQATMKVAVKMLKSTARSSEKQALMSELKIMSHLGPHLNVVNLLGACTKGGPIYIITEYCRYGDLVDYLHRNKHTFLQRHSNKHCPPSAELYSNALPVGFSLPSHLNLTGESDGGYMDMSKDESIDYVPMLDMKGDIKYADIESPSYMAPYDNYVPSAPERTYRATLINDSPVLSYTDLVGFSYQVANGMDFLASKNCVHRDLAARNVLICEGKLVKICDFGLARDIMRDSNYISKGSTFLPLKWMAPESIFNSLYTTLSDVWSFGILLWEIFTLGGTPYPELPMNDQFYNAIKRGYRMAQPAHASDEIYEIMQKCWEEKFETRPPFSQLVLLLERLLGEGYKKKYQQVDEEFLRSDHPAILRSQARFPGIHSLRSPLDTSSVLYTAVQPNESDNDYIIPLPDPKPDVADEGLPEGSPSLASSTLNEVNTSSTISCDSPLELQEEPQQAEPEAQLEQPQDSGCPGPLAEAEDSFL
T1 sequence (P04049 302-648): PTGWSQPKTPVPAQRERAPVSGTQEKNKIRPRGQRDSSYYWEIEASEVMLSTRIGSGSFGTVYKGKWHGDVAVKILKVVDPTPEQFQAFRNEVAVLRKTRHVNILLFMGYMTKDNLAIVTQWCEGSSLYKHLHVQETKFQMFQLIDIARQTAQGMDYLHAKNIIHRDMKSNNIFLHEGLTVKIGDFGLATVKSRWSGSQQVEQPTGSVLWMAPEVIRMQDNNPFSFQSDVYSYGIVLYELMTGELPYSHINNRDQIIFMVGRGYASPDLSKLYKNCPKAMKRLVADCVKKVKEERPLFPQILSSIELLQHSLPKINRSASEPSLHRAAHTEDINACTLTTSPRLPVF

CNC(=O)c1cc(Oc2ccc(NC(=O)Nc3ccc(Cl)c(C(F)(F)F)c3)c(F)c2)ccn1 [Example 1, 4{4-[3-(4-chloro-3-trifluoromethylphenyl)-ureido]-3-fluorophenoxy}-pyridine-2-carboxylic acid methylamide]
% of radioactivity, Wistar rat [1]: 75.7% | inhibition of PDGFR kinase (mouse PDGFR): significant inhibition | inhibition of raf kinase [2]: potent inhibition | IC50 [3]: 0.0436 µM | AUC Day 21 [4]: 61.5 µg·h/mL | Cmax Day 21 [4]: 4.17 µg/mL
